The record followed here is US10206394B2, “Herbicidal compounds” (Syngenta Participations AG, priority 2014, dated 2019).

Molecules are shown by their SMILES. Like-named read-outs stand apart in the source and are kept apart here.

Common to all, as to test: Glasshouse assay for herbicidal activity (pre- and post-emergence), percentage phytotoxicity
Holding throughout (format): in vivo

Assay [1] concerns Echinochloa crus-galli (ECHCG). The note with it: Echinochloa crus-galli, 250 g/ha, visual assessment (100%=total damage, 0%=no damage). In short, it runs like this: (§1)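 Damage was rated visually as percent phytotoxicity, 100% meaning total kill, 20 days after pre-emergence application (made one day post-sowing) or 15 days after post-emergence application (made about 12 days post-sowing). Plants were grown under 16 h light, 65% humidity, warm species 24/18° C, cool 20/16° C.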

Assay [2] has as its system Alopecurus myosuroides (ALOMY). The settings on record: Alopecurus myosuroides, 250 g/ha, visual assessment (100%=total damage, 0%=no damage). The method, boiled down: as §1
For another assay, the system named is Avena fatua (AVEFA). The settings on record: Avena fatua, 250 g/ha, visual assessment (100%=total damage, 0%=no damage). In short, it runs like this:
as §1

In another assay the test system is Lolium perenne (LOLPE). The note with it: Lolium perenne, 250 g/ha, visual assessment (100%=total damage, 0%=no damage). The method, boiled down:
as §1

[3] abbreviates: post-emergence, 360 h, post-emergence, 15 DAA, read-out: Post-emergence herbicidal activity (percentage phytotoxicity) ECHCG POST.
[4] abbreviates: pre-emergence, 480 h, pre-emergence, 20 DAA, read-out: Pre-emergence herbicidal activity (percentage phytotoxicity) ECHCG PRE.
Where [5] appears, read: post-emergence, 360 h, post-emergence, 15 DAA, read-out: Post-emergence herbicidal activity (percentage phytotoxicity) ALOMY POST.
Where [6] appears, read: pre-emergence, 480 h, pre-emergence, 20 DAA, read-out: Pre-emergence herbicidal activity (percentage phytotoxicity) ALOMY PRE.
The mark [7] stands for this setting: post-emergence, 360 h, post-emergence, 15 DAA, read-out: Post-emergence herbicidal activity (percentage phytotoxicity) AVEFA POST.
Where [8] appears, read: pre-emergence, 480 h, pre-emergence, 20 DAA, read-out: Pre-emergence herbicidal activity (percentage phytotoxicity) AVEFA PRE.
Setting [9] is: post-emergence, 360 h, post-emergence, 15 DAA, read-out: Post-emergence herbicidal activity (percentage phytotoxicity) LOLPE POST.
The mark [10] stands for this setting: pre-emergence, 480 h, pre-emergence, 20 DAA, read-out: Pre-emergence herbicidal activity (percentage phytotoxicity) LOLPE PRE.

In the case of `Cc1cc(C)c(C2C(=O)CC(CC(=O)N(C)C(C)(C)C)C2=O)c(C)c1` (stereo not shown) [Compound B80], the pest or weed control at 250 g/ha turned out to be 90% in assay [1] (setting [3]); 90% in assay [1] (setting [4]); 80% in assay [2] (setting [5]); 90% in assay [2] (setting [6]); 60% with Avena fatua (AVEFA) (setting [7]); 0% with Avena fatua (AVEFA) (setting [8]). Further, the pest or weed control at 250 g/ha in the assay on Lolium perenne (LOLPE) (setting [9]) was 90%; in the assay on Lolium perenne (LOLPE) (setting [10]), 100%.

In the case of `Cc1cc(C)c(C2C(=O)CC(CC(=O)N[C@@H]3C[C@@H]3F)C2=O)c(C)c1` (stereo partly shown) [Compound B81], the pest or weed control at 250 g/ha in assay [1] (setting [3]) is 80%; in assay [1] (setting [4]) it was 90%; in assay [2] (setting [5]), 80%; in assay [2] (setting [6]), 70%; with Avena fatua (AVEFA) (setting [7]) it was 90%; in the assay on Avena fatua (AVEFA) (setting [8]) it was 0%. Further, the pest or weed control at 250 g/ha in the assay with Lolium perenne (LOLPE) (setting [9]) and in the assay with Lolium perenne (LOLPE) (setting [10]) was 90% throughout.

For the compound `Cc1cc(C)c(C2C(=O)CC(CC(=O)NCC3(C)CC3(Cl)Cl)C2=O)c(C)c1` (stereo not shown) [Compound B82], the pest or weed control at 250 g/ha is 50% in assay [1] (setting [3]); 90% in assay [1] (setting [4]); 70% in assay [2] (setting [5]); 70% in assay [2] (setting [6]); 60% with Avena fatua (AVEFA) (setting [7]); 40% in the assay with Avena fatua (AVEFA) (setting [8]). Moreover, the pest or weed control at 250 g/ha is 70% in the assay on Lolium perenne (LOLPE) (setting [9]) and 80% in the assay with Lolium perenne (LOLPE) (setting [10]).

Consider `Cc1cc(-c2ncc(C#N)cc2Cl)cc(C)c1C1C(=O)CC(CC(=O)NC(C)(C)C)C1=O` (stereo not shown) [Compound B83], for which the pest or weed control at 250 g/ha is 90% in assay [1] (setting [3]); 90% in assay [1] (setting [4]); 70% in assay [2] (setting [5]); 80% in assay [2] (setting [6]); 80% in the assay on Avena fatua (AVEFA) (setting [7]); 30% with Avena fatua (AVEFA) (setting [8]). Further, the pest or weed control at 250 g/ha in the assay on Lolium perenne (LOLPE) (setting [9]) and with Lolium perenne (LOLPE) (setting [10]) was 80% each time.

Regarding `Cc1cc(-c2ncccc2F)cc(C)c1C1C(=O)CC(CC(=O)NC(C)(C)C)C1=O` (stereo not shown) [Compound B84], the pest or weed control at 250 g/ha in assay [1] (setting [3]) worked out at 100%; in assay [1] (setting [4]), 100%; in assay [2] (setting [5]), 100%; in assay [2] (setting [6]), 90%; with Avena fatua (AVEFA) (setting [7]), 100%; in the assay on Avena fatua (AVEFA) (setting [8]), 80%. Besides, the pest or weed control at 250 g/ha in the assay with Lolium perenne (LOLPE) (setting [9]) and in the assay on Lolium perenne (LOLPE) (setting [10]) was 100% in each case.

In the case of `Cc1cc(-c2ncc(C#N)cc2F)cc(C)c1C1C(=O)CC(CC(=O)NC(C)(C)C)C1=O` (stereo not shown) [Compound B85], the pest or weed control at 250 g/ha in assay [1] (setting [3]) came to 100%; in assay [1] (setting [4]), 20%; in assay [2] (setting [5]), 70%; in assay [2] (setting [6]), 70%; with Avena fatua (AVEFA) (setting [7]), 50%; in the assay on Avena fatua (AVEFA) (setting [8]), 10%. Besides, the pest or weed control at 250 g/ha in the assay on Lolium perenne (LOLPE) (setting [9]) came out at 80%; in the assay with Lolium perenne (LOLPE) (setting [10]), 70%.

With `C#Cc1cccc(CNC(=O)CC2CC(=O)C(c3c(C)cc(C)cc3C)C2=O)c1` (stereo not shown) [Compound B86], the pest or weed control at 250 g/ha in assay [1] (setting [3]) came to 90%; in assay [1] (setting [4]), 80%; in assay [2] (setting [5]), 70%; in assay [2] (setting [6]) it was 70%; with Avena fatua (AVEFA) (setting [7]), 100%; in the assay on Avena fatua (AVEFA) (setting [8]), 60%. The values for the pest or weed control at 250 g/ha with Lolium perenne (LOLPE) (setting [9]) and with Lolium perenne (LOLPE) (setting [10]) were 100% and 90%, respectively.

As to `Cc1cc(-c2ncc(F)cc2C#N)cc(C)c1C1C(=O)CC(CC(=O)NC(C)(C)C)C1=O` (stereo not shown) [Compound B87], the pest or weed control at 250 g/ha in assay [1] (setting [3]) stood at 80%; in assay [1] (setting [4]), 20%; in assay [2] (setting [5]), 70%; in assay [2] (setting [6]), 40%; with Avena fatua (AVEFA) (setting [7]), 30%; in the assay with Avena fatua (AVEFA) (setting [8]) it was 10%. Further, the pest or weed control at 250 g/ha in the assay with Lolium perenne (LOLPE) (setting [9]) stood at 80%; in the assay with Lolium perenne (LOLPE) (setting [10]), 70%.

`Cc1cc(-c2ncc(F)cc2F)cc(C)c1C1C(=O)CC(CC(=O)NCc2cccc(C(F)(F)F)c2)C1=O` (stereo not shown) [Compound B88]: the pest or weed control at 250 g/ha was 100% in assay [1] (setting [3]); 90% in assay [1] (setting [4]); 100% in assay [2] (setting [5]); 90% in assay [2] (setting [6]); 100% in the assay with Avena fatua (AVEFA) (setting [7]); 70% with Avena fatua (AVEFA) (setting [8]). Further, the pest or weed control at 250 g/ha with Lolium perenne (LOLPE) (setting [9]) is 100%; in the assay on Lolium perenne (LOLPE) (setting [10]), 90%.

`Cc1cc(-c2ncc(F)cc2F)cc(C)c1C1C(=O)CC(CC(=O)NCc2ccc(C(F)(F)F)cc2)C1=O` (stereo not shown) [Compound B89]: the pest or weed control at 250 g/ha in assay [1] (setting [3]) worked out at 100%; in assay [1] (setting [4]), 100%; in assay [2] (setting [5]), 100%; in assay [2] (setting [6]) it was 90%; in the assay on Avena fatua (AVEFA) (setting [7]), 100%; in the assay with Avena fatua (AVEFA) (setting [8]) it was 60%. The pest or weed control at 250 g/ha with Lolium perenne (LOLPE) (setting [9]) was found to be 100%; in the assay with Lolium perenne (LOLPE) (setting [10]) it was 90%.

Consider `Cc1cc(-c2ncc(F)cc2F)cc(C)c1C1C(=O)CC(CC(=O)NCc2cccc(Br)c2)C1=O` (stereo not shown) [Compound B90], for which the pest or weed control at 250 g/ha was determined as 100% in assay [1] (setting [3]); 100% in assay [1] (setting [4]); 100% in assay [2] (setting [5]); 90% in assay [2] (setting [6]); 100% in the assay with Avena fatua (AVEFA) (setting [7]); 70% with Avena fatua (AVEFA) (setting [8]). For the same compound, the pest or weed control at 250 g/ha with Lolium perenne (LOLPE) (setting [9]) and in the assay with Lolium perenne (LOLPE) (setting [10]) was 100% throughout.

As for `COc1ccc(CNC(=O)CC2CC(=O)C(c3c(C)cc(-c4ncc(F)cc4F)cc3C)C2=O)cc1` (stereo not shown) [Compound B91], the pest or weed control at 250 g/ha was found to be 100% in assay [1] (setting [3]); 80% in assay [1] (setting [4]); 100% in assay [2] (setting [5]); 80% in assay [2] (setting [6]); 100% with Avena fatua (AVEFA) (setting [7]); 70% in the assay on Avena fatua (AVEFA) (setting [8]). Also, the pest or weed control at 250 g/ha came to 100% in the assay with Lolium perenne (LOLPE) (setting [9]) and 90% in the assay with Lolium perenne (LOLPE) (setting [10]).

In the case of `C=C(F)CNC(=O)CC1CC(=O)C(c2c(C)cc(C)cc2C)C1=O` (stereo not shown) [Compound B92], the pest or weed control at 250 g/ha in assay [1] (setting [3]) worked out at 80%; in assay [1] (setting [4]), 90%; in assay [2] (setting [5]), 90%; in assay [2] (setting [6]) it was 90%; in the assay on Avena fatua (AVEFA) (setting [7]) it was 80%; in the assay with Avena fatua (AVEFA) (setting [8]) it was 30%. In addition, the pest or weed control at 250 g/ha in the assay on Lolium perenne (LOLPE) (setting [9]) stood at 90%; with Lolium perenne (LOLPE) (setting [10]), 100%.

`Cc1cc(-c2ncc(Cl)cc2F)cc(C)c1C1C(=O)CC(CC(=O)N2CCOCC2)C1=O` (stereo not shown) [Compound B93]: the pest or weed control at 250 g/ha worked out at 100% in assay [1] (setting [3]); 100% in assay [1] (setting [4]); 100% in assay [2] (setting [5]); 80% in assay [2] (setting [6]); 100% with Avena fatua (AVEFA) (setting [7]); 70% in the assay on Avena fatua (AVEFA) (setting [8]). Also, the pest or weed control at 250 g/ha with Lolium perenne (LOLPE) (setting [9]) stood at 100%; in the assay on Lolium perenne (LOLPE) (setting [10]) it was 90%.

On to `C=C(C)CNC(=O)CC1CC(=O)C(c2c(C)cc(-c3ncc(Cl)cc3F)cc2C)C1=O` (stereo not shown) [Compound B94], for which the pest or weed control at 250 g/ha stood at 100% in assay [1] (setting [3]); 100% in assay [1] (setting [4]); 100% in assay [2] (setting [5]); 100% in assay [2] (setting [6]); 100% in the assay on Avena fatua (AVEFA) (setting [7]); 90% in the assay on Avena fatua (AVEFA) (setting [8]). Moreover, the pest or weed control at 250 g/ha with Lolium perenne (LOLPE) (setting [9]) and in the assay on Lolium perenne (LOLPE) (setting [10]) was 100% in each case.

As to `Cc1cc(-c2ncc(Cl)cc2F)cc(C)c1C1C(=O)CC(CC(=O)NCCF)C1=O` (stereo not shown) [Compound B95], the pest or weed control at 250 g/ha (in assay [1] (setting [3]); in assay [1] (setting [4]); in assay [2] (setting [5]); in assay [2] (setting [6]); with Avena fatua (AVEFA) (setting [7]); with Avena fatua (AVEFA) (setting [8])) was 100% in each case. For the same compound, the pest or weed control at 250 g/ha in the assay on Lolium perenne (LOLPE) (setting [9]) and in the assay on Lolium perenne (LOLPE) (setting [10]) was 100% throughout.

As to `CONC(=O)CC1CC(=O)C(c2c(C)cc(C)cc2C)C1=O` (stereo not shown) [Compound B96], the pest or weed control at 250 g/ha in assay [1] (setting [3]) came out at 90%; in assay [1] (setting [4]) it was 30%; in assay [2] (setting [5]) it was 20%; in assay [2] (setting [6]), 0%; in the assay on Avena fatua (AVEFA) (setting [7]), 60%; with Avena fatua (AVEFA) (setting [8]) it was 0%. Also, the pest or weed control at 250 g/ha in the assay with Lolium perenne (LOLPE) (setting [9]) and in the assay with Lolium perenne (LOLPE) (setting [10]) was 80% throughout.
